Format in all cases: cell-based
One assay concerns Phytophthora infestans. Put plainly: microbe, parasite or virus in culture. Particulars: for Observed efficacy: solo product.
The subject of a further assay is Pyricularia oryzae. Put plainly: microbe, parasite or virus in culture. Particulars: for Observed efficacy: solo product.
The test system of a further assay is Septoria tritici. The assay can be described thus: Microtest against leaf blotch on wheat caused by Septoria tritici (Septtr). The note with it: solo product; for inhibition of growth at 4e-06 ppm: 0.000004 ppm; for inhibition of growth at 1.6e-05 ppm: 0.000016 ppm.
A further assay deals with Botrytis cinerea. Put plainly: Microtiterplate test against the grey mold Botrytis cinerea (Botrci). The note with it: solo product.
The subject of the next assay is Alternaria solani. Put plainly: Microtest against early blight caused by Alternaria solani (Alteso). The note with it: solo product; for inhibition of growth at 4e-06 ppm: 0.000004 ppm; for inhibition of growth at 6.3e-05 ppm: 0.000063 ppm.
A further assay has as its system Leptosphaeria nodorum. Put plainly: Microtest against wheat leaf spots caused by Leptosphaeria nodorum (Leptno). Particulars: Parastagonospora nodorum, 168 h, solo product, read-out: Observed efficacy.
[1] abbreviates: Phytophthora infestans, 168 h, read-out: Observed efficacy.
Setting [2] is: Pyricularia oryzae, 168 h, read-out: Observed efficacy.
Where [3] appears, read: Zymoseptoria tritici, 168 h, read-out: Observed efficacy.
Where [4] appears, read: Zymoseptoria tritici, 168 h, […], read-out: Observed efficacy.
[5] abbreviates: Botrytis cinerea, 168 h, 0.063 ppm, read-out: Observed efficacy.
Setting [6] is: Botrytis cinerea, 168 h, 0.25 ppm, read-out: Observed efficacy.
Setting [7] is: Alternaria solani, 168 h, read-out: Observed efficacy.
Setting [8] is: Zymoseptoria tritici, 168 h, 0.001 ppm, read-out: Observed efficacy.
The mark [9] stands for this setting: Alternaria solani, 168 h, 0.004 ppm, read-out: Observed efficacy.
Where [10] appears, read: Alternaria solani, 168 h, 0.016 ppm, read-out: Observed efficacy.
Setting [11] is: Alternaria solani, 168 h, 0.00025 ppm, read-out: Observed efficacy.
[12] abbreviates: Botrytis cinerea, 168 h, read-out: Observed efficacy.
The mark [13] stands for this setting: Alternaria solani, 168 h, 0.063 ppm, read-out: Observed efficacy.
Where [14] appears, read: Botrytis cinerea, 168 h, 4 ppm, read-out: Observed efficacy.
[15] abbreviates: Alternaria solani, 168 h, 0.25 ppm, read-out: Observed efficacy.
The mark [16] stands for this setting: Botrytis cinerea, 168 h, 16 ppm, read-out: Observed efficacy.

Like-named read-outs stand apart in the source and are kept apart here.

For `CC(O)(Cn1cncn1)c1ccc(Oc2ccc(Cl)cc2)cc1Cl` (centres unmarked) [I-17, 2-[2-chloro-4-(4-chlorophenoxy)phenyl]-1-(1,2,4-triazol-1-yl)propan-2-ol], in the assay with Phytophthora infestans (setting [1]), the inhibition of growth at 16 ppm was 5%. For the same molecule, the inhibition of growth at 1 ppm with Pyricularia oryzae (setting [2]) stood at 61%. The inhibition of growth at 1e-06 ppm in the assay on Septoria tritici (Zymoseptoria tritici, 168 h, 0.000001 ppm, read-out: Observed efficacy) turned out to be 14%. The inhibition of growth at 4e-06 ppm in the assay with Septoria tritici (setting [3]) is 12%; with Alternaria solani (setting [7]), 6%. Moreover, the inhibition of growth at 1.6e-05 ppm in the assay on Septoria tritici (setting [3]) was found to be 19%; in the assay with Alternaria solani (Alternaria solani, 168 h, 0.000016 ppm, read-out: Observed efficacy), 0%. In the assay with Septoria tritici (setting [4]), the inhibition of growth at 2.5e-07 ppm is 10%. In addition, the inhibition of growth at 6.3e-05 ppm with Botrytis cinerea (Botrytis cinerea, 168 h, 0.000063 ppm, read-out: Observed efficacy) turned out to be 9%; in the assay with Alternaria solani (setting [7]), 0%. Further, the inhibition of growth at […] with Botrytis cinerea (setting [5]) and in the assay on Botrytis cinerea (setting [6]) was 0% each time.

As for `CC(O)(Cn1cncn1)c1ccc(Oc2ccc(F)cc2)cc1Cl` (centres unmarked) [I-18, 2-[2-chloro-4-(4-fluorophenoxy)phenyl]-1-(1,2,4-triazol-1-yl)propan-2-ol], the inhibition of growth at 16 ppm with Phytophthora infestans (setting [1]) was found to be 15%. Besides, the inhibition of growth at 63 ppm in the assay on Phytophthora infestans (setting [1]) was found to be 19%. The inhibition of growth at 0.016 ppm in the assay with Pyricularia oryzae (setting [2]) is 1%; in the assay on Alternaria solani (setting [10]), 7%. The inhibition of growth at 1 ppm with Pyricularia oryzae (setting [2]) was found to be 5%. In addition, the inhibition of growth at 1.6e-05 ppm in the assay with Septoria tritici (setting [3]) was 4%. Besides, in the assay on Septoria tritici (setting [8]), the inhibition of growth at 0.001 ppm was 4%. In addition, the inhibition of growth at 6.3e-05 ppm came to 0% in the assay with Septoria tritici (setting [4]) and 22% in the assay with Leptosphaeria nodorum (0.000063 ppm). Besides, the inhibition of growth at […] came to 26% in the assay on Leptosphaeria nodorum (0.00025 ppm), 13% in the assay with Botrytis cinerea (setting [5]) and 44% in the assay on Botrytis cinerea (setting [6]). For the same molecule, the inhibition of growth at 0.004 ppm in the assay on Alternaria solani (setting [9]) came out at 0%.

With `CCC(Cn1cncn1)(OC)c1ccc(Oc2ccc(Cl)cc2)cc1Cl` (centres unmarked) [I-21, 1-[2-[2-chloro-4-(4-chlorophenoxy)phenyl]-2-methoxy-butyl]-1,2,4-triazole], the inhibition of growth at 63 ppm in the assay on Phytophthora infestans (setting [1]) was 29%. In the assay on Pyricularia oryzae (setting [2]), the inhibition of growth at 0.016 ppm turned out to be 1%. Besides, the inhibition of growth at 4e-06 ppm in the assay with Septoria tritici (setting [3]) was determined as 17%. Moreover, the inhibition of growth at 6.3e-05 ppm with Septoria tritici (setting [4]) was 25%. Moreover, the inhibition of growth at […] in the assay with Leptosphaeria nodorum (0.00025 ppm) was determined as 12%; in the assay on Botrytis cinerea (setting [5]), 18%; with Alternaria solani (setting [11]), 2%. The inhibition of growth at 0.001 ppm in the assay on Leptosphaeria nodorum was 22%. The inhibition of growth at 0.004 ppm with Alternaria solani (setting [9]) was found to be 5%.

Consider `CCCC(Cn1cncn1)(OC)c1ccc(Oc2ccc(Cl)cc2)cc1Cl` (centres unmarked) [I-22, 1-[2-[2-chloro-4-(4-chlorophenoxy)phenyl]-2-methoxy-pentyl]-1,2,4-triazole], for which the inhibition of growth at 63 ppm in the assay on Phytophthora infestans (setting [1]) stood at 41%. The inhibition of growth at 0.001 ppm in the assay on Septoria tritici (setting [8]) worked out at 10%. In addition, the inhibition of growth at […] in the assay on Leptosphaeria nodorum (0.063 ppm) worked out at 25%; in the assay on Botrytis cinerea (setting [6]) it was 1%; in the assay with Alternaria solani (setting [13]), 25%. Further, the inhibition of growth at 1 ppm in the assay on Botrytis cinerea (setting [12]) stood at 34%.

As to `C#CCC(O)(Cn1cncn1)c1ccc(Oc2ccc(Cl)cc2)cc1Cl` (centres unmarked) [I-25, 2-[2-chloro-4-(4-chlorophenoxy)phenyl]-1-(1,2,4-triazol-1-yl)pent-4-yn-2-ol], the inhibition of growth at 16 ppm in the assay with Phytophthora infestans (setting [1]) came out at 0%. Also, the results for the inhibition of growth at 1.6e-05 ppm in the assay with Septoria tritici (setting [3]) and with Leptosphaeria nodorum (0.000016 ppm) were 12% and 22%, respectively. Moreover, the inhibition of growth at 0.001 ppm in the assay with Septoria tritici (setting [8]) came to 37%. Moreover, the inhibition of growth at 6.3e-05 ppm came to 12% in the assay on Septoria tritici (setting [4]) and 1% in the assay with Alternaria solani (setting [7]). Also, the inhibition of growth at 4e-06 ppm was found to be 14% with Leptosphaeria nodorum (0.000004 ppm) and 7% in the assay on Alternaria solani (setting [7]). Further, in the assay on Botrytis cinerea (Botrytis cinerea, 168 h, 0.004 ppm, read-out: Observed efficacy), the inhibition of growth at 0.004 ppm was 9%. The inhibition of growth at 0.016 ppm in the assay with Botrytis cinerea (Botrytis cinerea, 168 h, 0.016 ppm, read-out: Observed efficacy) turned out to be 16%. Moreover, the inhibition of growth at […] in the assay with Botrytis cinerea (setting [5]) was 23%; in the assay on Botrytis cinerea (setting [6]), 49%.

Turning to `COCC(O)(Cn1cncn1)c1ccc(Oc2ccc(F)cc2)cc1Cl` (centres unmarked) [I-27, 2-[2-chloro-4-(4-fluorophenoxy)phenyl]-1-methoxy-3-(1,2,4-triazol-1-yl)propan-2-ol], in the assay with Phytophthora infestans (setting [1]), the inhibition of growth at 63 ppm came to 31%. For the same molecule, the inhibition of growth at 1 ppm with Pyricularia oryzae (setting [2]) was 29%. Further, the inhibition of growth at 1.6e-05 ppm with Septoria tritici (setting [3]) is 7%. Also, the inhibition of growth at 0.001 ppm turned out to be 9% in the assay with Septoria tritici (setting [8]); 6% in the assay with Leptosphaeria nodorum; 0% with Alternaria solani (Alternaria solani, 168 h, 0.001 ppm, read-out: Observed efficacy). In the assay on Septoria tritici (setting [4]), the inhibition of growth at 6.3e-05 ppm is 6%. In addition, the inhibition of growth at […] in the assay on Leptosphaeria nodorum (0.00025 ppm) was 8%; in the assay with Botrytis cinerea (setting [5]) it was 22%; with Alternaria solani (setting [11]) it was 4%. For the same molecule, the inhibition of growth at 0.004 ppm turned out to be 15% in the assay with Leptosphaeria nodorum (0.004 ppm) and 0% in the assay with Alternaria solani (setting [9]). For the same molecule, the inhibition of growth at 0.016 ppm with Leptosphaeria nodorum (0.016 ppm) worked out at 24%; in the assay with Alternaria solani (setting [10]), 12%.

For the molecule `CO/C=C(/C(=O)OC)c1ccccc1Oc1cc(Oc2ccccc2C#N)ncn1` [II-3, azoxystrobin, reference compound], the Observed efficacy stood at 2 in the assay with Phytophthora infestans (0.016 ppm); 1 in the assay with Pyricularia oryzae (0.004 ppm); 12 in the assay with Septoria tritici (0.001 ppm); 14 in the assay on Botrytis cinerea (4 ppm); 23 with Botrytis cinerea (16 ppm); 6 in the assay with Alternaria solani (0.004 ppm). In the assay on Alternaria solani (0.016 ppm), the Observed efficacy is reported as 14.

`N#Cc1c(Cl)c(Cl)c(Cl)c(C#N)c1Cl` [II-11, chlorothalonil, reference compound]: in the assay with Phytophthora infestans (setting [1]), the inhibition of growth at 0.016 ppm stood at 2%. The values for the inhibition of growth at 1 ppm with Leptosphaeria nodorum and in the assay on Botrytis cinerea (setting [12]) were 28% and 23%, respectively. The inhibition of growth at 4 ppm with Botrytis cinerea (setting [14]) was found to be 41%. Also, the inhibition of growth at […] in the assay with Alternaria solani (setting [13]) was found to be 4%; in the assay with Alternaria solani (setting [15]), 2%.

Take `Cc1ccc(-c2c(Cl)nc(C#N)n2S(=O)(=O)N(C)C)cc1` [II-12, cyazofamid, reference compound]: in the assay on Phytophthora infestans (setting [1]), the inhibition of growth at 0.004 ppm is 8%. The inhibition of growth at 4 ppm with Pyricularia oryzae (setting [2]) worked out at 9%; with Alternaria solani (setting [7]), 14%. In addition, the inhibition of growth at 16 ppm with Septoria tritici (Zymoseptoria tritici, 168 h, 16 ppm, read-out: Observed efficacy) was found to be 40%; with Botrytis cinerea (setting [16]), 24%; in the assay on Alternaria solani (Alternaria solani, 168 h, 16 ppm, read-out: Observed efficacy), 35%.

For the molecule `CN1COCN(Cc2cnc(Cl)s2)/C1=N\[N+](=O)[O-]` [II-42c, thiamethoxam, reference compound], the inhibition of growth at 1 ppm in the assay with Phytophthora infestans (setting [1]) was determined as 1%; in the assay on Pyricularia oryzae (setting [2]), 56%; in the assay with Septoria tritici (Zymoseptoria tritici, 168 h, 1 ppm, read-out: Observed efficacy), 57%; in the assay on Leptosphaeria nodorum, 22%; with Alternaria solani (Alternaria solani, 168 h, 1 ppm, read-out: Observed efficacy), 10%. Further, the inhibition of growth at 4 ppm with Phytophthora infestans (setting [1]) is 2%; in the assay on Leptosphaeria nodorum (4 ppm), 51%; in the assay on Alternaria solani (setting [7]), 51%. For the same molecule, the inhibition of growth at 0.016 ppm in the assay on Pyricularia oryzae (setting [2]) was 3%. In addition, the inhibition of growth at 63 ppm in the assay on Botrytis cinerea (Botrytis cinerea, 168 h, 63 ppm, read-out: Observed efficacy) was 8%. Besides, in the assay with Alternaria solani (setting [15]), the inhibition of growth at […] came out at 8%.

With `CC(C)C1C2CCC1c1c(NC(=O)c3cn(C)nc3C(F)F)cccc12` (centres unmarked) [II-50, isopyrazam, reference compound], the Observed efficacy is 23 in the assay with Phytophthora infestans (16 ppm), 1 in the assay on Pyricularia oryzae (0.004 ppm), 6 in the assay with Botrytis cinerea (0.016 ppm) and 15 in the assay with Alternaria solani (0.016 ppm).

Turning to `COC(=O)N(OC)c1ccccc1COc1ccn(-c2ccc(Cl)cc2)n1` [II-66, pyraclostrobin, reference compound], the inhibition of growth at 0.016 ppm with Phytophthora infestans (setting [1]) is 9%. The inhibition of growth at 0.004 ppm is 59% in the assay with Pyricularia oryzae (setting [2]); 37% in the assay on Septoria tritici (Zymoseptoria tritici, 168 h, 0.004 ppm, read-out: Observed efficacy); 8% with Alternaria solani (setting [9]). In the assay on Septoria tritici (setting [8]), the inhibition of growth at 0.001 ppm was 12%. For the same molecule, in the assay with Septoria tritici (setting [4]), the inhibition of growth at 6.3e-05 ppm came to 7%. Besides, the inhibition of growth at 4 ppm with Botrytis cinerea (setting [14]) amounted to 29%. Also, the inhibition of growth at 16 ppm in the assay on Botrytis cinerea (setting [16]) amounted to 66%.

Turning to `CC1(C)CCC(Cc2ccc(Cl)cc2)C1(O)Cn1cncn1` (centres unmarked) [Metconazol], the Observed efficacy in the assay on Phytophthora infestans (0.004 ppm) was 2; in the assay on Pyricularia oryzae (1 ppm), 58; with Septoria tritici (0.016 ppm), 24; with Alternaria solani (0.016 ppm), 17.

Turning to `CC(C)(C)C(O)(CCc1ccc(Cl)cc1)Cn1cncn1` (centres unmarked) [Tebuconazol], the Observed efficacy in the assay on Phytophthora infestans (0.016 ppm) turned out to be 1; in the assay with Septoria tritici (0.016 ppm), 5; in the assay with Botrytis cinerea (0.016 ppm) it was 9; in the assay on Alternaria solani (0.016 ppm), 8.

Source of the values: patent US20150313225A1.
